Two substances from patent US20210087565A1, “ANTISENSE ANTIBIOTICS AND BACTERIAL SECRETION BASED DELIVERY SYSTEM TO ELIMINATE DRUG-RESISTANT BACTERIA” (priority 2018, published 2021) can be followed below.

One data set deals with E. coli MG1655. Kind of data set: Growth curves and CFU of lab strain treated with PNA. It counts as cell-based, Escherichia coli. The settings on record: 10 μM. On the procedure:
FIG. 7. Dose response of various PNA. Optical density of a 1:10,000 dilution of MG6155 from overnight liquid culture, treated with various concentrations of antisense inhibitors was measured for 3 biological replicates with error bars as standard deviations. Normalized growth was measured as the optical density at 22 hours normalized to no treatment. An asterisk (*) indicates a significant difference (p<0.05) as compared to no treatment for each inhibitor.
FIG. 8. Antisense Inhibitors targeting novel pathways can inhibit growth of E. coli. z. (A) Growth curves of E. coli MG1655 from a 1:10,000 dilution from an overnight culture, normalized to time t=0 with 10 μM of respective antisense inhibitor. […] (B) Colony forming units per milliliter of MG1655 E. coli for respective treatment as a function of time. The CFU/mL at t=0 represents the starting culture after a 1:100,000 dilution from overnight culture. […] Significance is measured as p<0.05.
(§1) Bacterial Cell culture: The clinical isolates were obtained from the lab of Nancy Madinger at the University of Colorado Anschutz campus. Clinical isolates were grown in Cation Adjusted Mueller Hinton broth (CAMHB) (Becton, Dickinson and Company 212322) at 37° C. with 225 rpm shaking or on solid CAMHB with 1.5% agar at 37° C. Clinical isolates were maintained as freezer stocks in 90% CAMHB, 10% glycerol at −80° C. Freezer stocks were streaked out onto solid CAMHB and incubated for 16 h to produce single colonies prior to experiments. For each biological replicate, a single colony was picked from solid media and grown for 16 h in liquid CAMHB prior to experiments. Non-clinical isolates, such as E. coli MG1655 (ATCC700926) and Salmonella entorica serovar typhimurium SL1344, were cultured in liquid 2% lysogeny broth (LB) or on 2% LB with 1.5% agar for solid plates. S. typhimurium cultures were supplemented with 30 μg/mL streptomycin and SL1344 strains containing plasmids pFPV (SL1344-mCherry) or pRG1 modified with a lacIq promoter (SL1344-Holin) were supplemented with 100 μg/mL ampicillin. Freezer stocks were stored in 60% LB broth, 40% glycerol at −80° C. Freezer stocks were streaked out onto solid LB and incubated for 16 h to produce single colonies before experiments. For biological replicates, single colonies were started in liquid LB and grown for 16 hours prior to experiments. E. coli MG1655 PNA growth experiments were carried out in M9 media (1×M9 minimal media salts solution (MP Biomedicals), 2.0 mM MgSO4, and 0.1 mM CaCl2 in sterile water) with 0.4% glucose.
PNA growth assay: Biological replicates were diluted 1:10,000 into treatment condition in 384-well plates and measured for 24 h in a Tecan GENios at 562 nm with a bandwidth of 35 nm. Media absorbance blanks were subtracted from data prior to analysis. […]

The test system of a further data set is SL1344. Kind of data set: Effect of 45-minute incubation with PNA on SL1344 viability. The class given is cell-based, Salmonella enterica serovar typhimurium. The settings on record: 10 μM, 45 minutes. On the procedure: FIG. 13. Effect of 45-minute incubation with PNA treatment during infection. (A) Individual colonies of SL1344 were picked off of solid media and grown for 16 hours in luria broth supplemented with 30 μg/mL streptomycin, diluted 1:10, and regrown for 4 hours. After regrowth bacteria was diluted to a concentration equivalent to a […] multiplicity of infection of 200,000 cells/mL in 100 μL (conditions of HeLa cell infection after 24 hours growth). Cultures were suspended in phosphate buffered saline and treated with 10 μM of either α-lexA, α-rpsD, or plain phosphate buffered saline for 45 minutes before serial dilution, plated on solid media (40 μg/mL streptomycin), and incubated for 16 hours. Colony forming units were counted to enumerate percent infection with respect to no treatment. There is no significant difference (p>0.05) between α-lexA and α-rpsD at 45 minutes of treatment. […] Percent infection was then calculated in comparison to each replicates' no treatment. […]
Effect of PNA after 45 min of incubation during HeLa infection: SL1344 were cultured as described above and split 1:10 and regrown for 4 hours. […] Samples (10 μL) were taken at t=0 (before PNA addition) and t=45 min (after PNA treatment), and serially diluted, plated, and grown for 16 hours at 37° C. and CFU counted.

Another data set has as its system MDR STm. Kind of data set: PNA growth assay (optical density) on clinical isolate. Particulars: for growth inhibition: MDR STm, 10 μM PNA, optical density vs no treatment at 16 hours; for monotherapy effect (in words): clinical isolate of Salmonella. The class given is cell-based, Salmonella enterica serovar typhimurium. On the procedure:
as §1
(§2) PNA growth assay: Biological replicates were diluted 1:10,000 into treatment condition in 384-well plates and measured for 24 h in a Tecan GENios at 562 nm with a bandwidth of 35 nm. Media absorbance blanks were subtracted from data prior to analysis. Normalized optical density (OD) data is shown normalized to the time point where the “no treatment” growth curves reached saturation phase which varied across biological replicates.

A further data set relates to CRE E. coli. The description is as above. It counts as cell-based, Escherichia coli. Particulars: for growth inhibition: 10 μM PNA, optical density vs no treatment at 16 hours. As for the experimental part: as §1, §2

Several values for one entry are separate records, joined by “and”; a condition that tells them apart may be missing. Equal entries are not always repeated. Entries after “also recorded” stand apart in the source; their conditions may differ.

“α-lexA: 12-mer antisense PNA cGGAATGAAAGC (SEQ ID NO. 17) targeting lexA, conjugated to (KFF)3K cell penetrating peptide via AEEA-linker (antisense CGGAATGAAAGC; all peptide nucleic acid (PNA); (KFF)3K cell-penetrating peptide attached via AEEA linker)”: the “effect on growth (in words)” value in the data set on E. coli MG1655 is given as “complete suppression of cell growth”. Besides, in the data set with SL1344, the “bacterial viability after co-incubation (in words)” value is given as “not long enough for the PNA to decrease bacterial viability”. Further, in the data set on MDR STm, the growth inhibition is given as 62±5.4% and the “monotherapy effect (in words)” value was “effective against the clinical isolate of Salmonella”. The same substance yielded a growth inhibition with CRE E. coli of 51±8.1%.

For “α-rpsD: 12-mer antisense PNA AGAAAATGGCAA (SEQ ID NO. 19) targeting rpsD, conjugated to (KFF)3K cell penetrating peptide via AEEA-linker (all peptide nucleic acid (PNA); (KFF)3K cell-penetrating peptide attached via AEEA linker)”, in the data set on E. coli MG1655, the “effect on growth (in words)” value is on record as “effective in killing; also recorded: complete suppression of cell growth”. Also, the “colony forming units per milliliter” value in the data set with E. coli MG1655 (within 2 hours of treatment) was found to be 0 CFU/mL. In addition, the “bacterial viability after co-incubation (in words)” value in the data set with SL1344 is on record as “not long enough for the PNA to decrease bacterial viability”. The growth inhibition was 99±0.1% and 99% in the data set on MDR STm; 99±0.4% and 99% in the data set with CRE E. coli. The “monotherapy effect (in words)” value with MDR STm is given as “effective against the clinical isolate of Salmonella”; with CRE E. coli (10 μM) it was “effective in killing”.
